Measurements as given in patent publication US10561681B2, “Antimetastatic 2H-selenopheno[3,2-h]chromenes, synthesis thereof, and methods of using same agents” (Latvian Institute of Organic Synthesis, priority 2016, dated 2020).
Marks after values point to notes of the source that are not given here.

Tests used:
[1] = tested on: 4T1 carcinoma cells; test: 4T1 model of lung metastasis (tail vein) in Balb/c mice; format: in vivo, mouse; conditions: for % of the total area occupied by metastases, % (control = 100) / % of the total area occupied by metastases, Mean ± SD: 20 mg/kg, days 1, 4, 7, 9, 11, 14
Protocol: Compounds were administered s.c. at 1, 4, 7, 9, 11 and 14th days. 4T1 cells (10,000/0.1 ml PBS) were injected i.v. into syngeneic mice. The metastasis at day 16 are shown for each mouse, and averages are provided for illustration.
Balb/c mice were injected with 100,000 4T1 […] cancer cells into the tail vein and treatment started 24 hr later with subcutaneous (s.c.), intraperitoneal (i.p.) injections or oral administration (p.o.) of compounds according to the following scheme: 1, 4, 7, 9, 11 and 14th days in dose 20 or 40 mg/kg. Compounds were dissolved in DMSO and the solution were diluted by water (DMSO final concentration <1%). Mice in the control group were similarly given doses of 0.1 mL of water with DMSO. Twenty-one days later, all mice were anesthetized with ketamine/xylazine and euthanized, the mice were sacrificed spleens were excised from the mice and weighed. In each experiment, mice were weighed twice weekly.
(Lewis et al, Cancer Res, 2005, 65) Pulmonary metastases were enumerated by intra-tracheal injection of India ink (15% India Ink, 85% water, 3 drops NH4OH/100 ml). India ink injected lungs were washed in Feket's solution (300 ml 70% EtOH, 30 ml 37% formaldehyde, 5 ml glacial acetic acid) and then placed fresh Feket's solution overnight. […] White tumor nodules against a black lung background were measured.

[2] = tested on: 4T1 cells; test: Orthotropic model of 4T1 murine metastatic breast cancer in BALB/c mice; format: in vivo, mouse; conditions: 4T1 orthotropic; for Increase of spleen weight (splenomegaly) compared with healthy animals: control with tumors 316%
Protocol: Orthotropic model of mouse breast cancer was developed by injection of 4T1 cells in the mammary fat pad of syngeneic BALB/c mice. In this case, 4T1 cells develops solid tumors following by metastasis in lung, liver, lymph nodes, and brain (Aslakson at al., Cancer Res, 1992, 52, 1399-1405).
In our experiments seven-week-old female BALB/c mice were injected orthotopically into the fourth mammary fat pad with 10^5 4T1 cells suspended in 0.01 mL of PBS on day zero of the study. The compounds dissolved in DMSO, diluted with 0.1 mL water (DMSO final concentration 1%) and injected s.c. The compounds were administered at 1, 2, 3, 11 days, dose 20 mg/kg. Mice in the untreated group were similarly given four doses of 0.1 mL of water with DMSO. Tumor volume (tumor volume V=[…], wherein “a” is the maximal, and “b”—the minimal tumor diameter) was calculated twice per week. The mice were examined every other day on appearance, weight and behavior. The mice were sacrificed at day 16 of the experiment by decapitation under ketamine/xylazine anesthesia. After euthanasia, the mice were dissected. The primary tumor, liver and spleen were removed, weighed and studied. All metastases in the internal organs were described.

[3] = tested on: mouse sarcoma CCRF-S180 II (CCL-8); test: Mouse non-metastatic cancer model, sarcoma CCL-8 s.c. in ICR mice; format: in vivo; conditions: s.c. Day 1, 2, 3, 4, 7, 8, 9, 10, 11; dose 5 mg/kg, total dose 45 mg/kg
Protocol: Six-week-old female ICR and BALB/c mice were purchased from the University of Tartu Laboratory Animal Centre (Estonia). The mice were housed five to a cage, and under standard conditions (21-23° C., 12 h light: dark cycle), fed ad libitum (R3 diet, Lactamin AB, Kimstad, Sweden) and observed daily. The experimental procedures involving experimental animals were carried out in accordance with the guidelines of the European Community, local laws and policies, and were approved by the Latvian Animal Protection Ethical Committee, the Food and Veterinary Service, Riga, Latvia.
In vivo studies were performed utilizing the mouse sarcoma CCRF-S180 II (CCL-8) and Lewis lung carcinoma (LLC) cell line. All cell lines were purchased from ATCC. The cells were grown in Dulbecco's modified Eagle's medium (Sigma) supplemented with 10% fetal calf serum (Sigma).
ICR mice were subcutaneously inoculated in the back with 5×10^6 CCL-8 cells and BALB/c mice were inoculated with 1×10^6 LLC (Lewis Lung Carcinoma) cells, which were suspended in 0.1 mL of PBS on day zero of the study. The compounds dissolved in DMSO and then in 0.1 mL water (DMSO final concentration 1%) were injected s.c. Mice in the untreated group were similarly given doses of 0.1 mL of water with DMSO. Tumor volume (tumor volume V=[…], a is maximal and b the minimal tumor diameter) was recorded twice per week. The mice were examined every other day for diseases including appearance, weight and behavior. The mice were sacrificed at day 16 of the experiment by decapitation after ketamine/xylazine anesthesia.

[4] = tested on: B16-F10 melanoma cells; test: Melanoma model of lung metastasis in C57BL/6 mice; format: in vivo, mouse; conditions: total dose 140 mg/kg; for Inhibition of melanoma metastasis in lung: s.c. Day 1, 7, 8, 9, 10, 11, 14, 20 mg/kg, day 21; for Animals (group of six) without melanoma metastasis: s.c.
Protocol: B16-F10 cells (10,000/0.1 ml PBS) were injected i.v. into syngeneic mice. The number of macroscopic lung metastases was determined 21 days later.
C57BL/6 mice were injected with 100,000 B16-F10 melanoma cells into the mice via the tail vein and treatment started 24 hr later with subcutaneous injections (s.c.) of compounds administered according to the following scheme: 1, 7, 8, 9, 10, 11 and 14th days in dose 20 mg/kg. Mice in the control group were similarly given doses of 0.1 mL of water with DMSO (DMSO final concentration <1%). Twenty-one days later, all mice were anesthetized with ketamine/xylazine and euthanized, the mice were sacrificed and the black melanoma nodules on the lungs were measured. In each experiment, mice were weighed twice weekly.

[5] = tested on: malignant tumor cells; test: In vitro cytotoxicity on monolayer tumor cell lines (panel, summary in words); format: cell-based; conditions: summary of Table 1
Protocol: Anticancer activity of selenopheno[h]chromenes was tested in vitro using cytotoxicity assay. Thus, monolayer tumor cell lines MDA-MB-435s (human melanoma), MCF-7 (human breast adenocarcinoma, estrogen-positive), MES-SA (human uterus sarcoma), HT-1080 (human fibrosarcoma), A549 (human lung carcinoma), SH-SY5Y (human neuroblastoma), CCL-8 (mouse sarcoma), MG-22A (mouse hepatoma), and HepG2 (human hepatocellular carcinoma) were cultured in standard medium DMEM (Dulbecco's modified Eagle's medium) (“Sigma”) supplemented with 10% fetal bovine serum (“Sigma”). About 2-9·10^4 cells/mL (depending on line nature) were placed in 96-well plates immediately after compounds were added to the wells. Untreated cells were used as a control. The plates were incubated for 72 h, 37° C., 5% CO2. The number of surviving cells was determined using 3-(4,5-dimethylthiazol-2-yl)-2,5-diphenyltetrazolinium bromide (MTT). MTT-test: after incubating culture medium was removed and 200 μL fresh medium with 10 mM HEPES was added in each well of the plate, than 20 μL MTT (2 mg/mL in HBSS) was added. After incubation (3 hr, 37° C., 5% CO2), the medium with MTT was removed and 200 μL DMSO were added at once to each sample. The samples were tested at 540 nm on Anthos HT II photometer.

| SMILES | Effect on development of splenomegaly ([1]; 4T1 i.v.) | Spleen weight increase ([1]; 4T1 i.v., dose not stated, control with tumor +147%) [%] | % of the total area occupied by metastases, % (control = 100) ([1]; i.p.) [%] | % of the total area occupied by metastases, Mean ± SD ([1]; i.p.) [%] | % of the total area occupied by metastases, % (control = 100) ([1]; p.o.) | % of the total area occupied by metastases, Mean ± SD ([1]; p.o.) [%] | % of the total area occupied by metastases, % (control = 100) ([1]; s.c.) | % of the total area occupied by metastases, Mean ± SD ([1]; s.c., control 50 ± 33) [%] | Formation of metastases [2] | Increase of spleen weight (splenomegaly) compared with healthy animals [2] [%] | Anticancer activity in vivo (inhibition, %), CCL-8 tumor volume [3] | Inhibition of melanoma metastasis in lung [4] [%] | Animals (group of six) without melanoma metastasis [4] | Cytotoxicity on cancer cell lines [5] | Prevention of formation of 4T1 carcinoma lung metastasis ([1]; five mice per group) [%] |
| --- | --- | --- | --- | --- | --- | --- | --- | --- | --- | --- | --- | --- | --- | --- | --- |
| COC(=O)c1cc2ccc3c(Br)c(CN4CCN(C)CC4)[se]c3c2oc1=O [Compound I-10, Methyl 7-bromo-8-((4-methylpiperazin-1-yl)methyl)-2-oxo-2H-selenopheno[3,2-h]chromene-3-carboxylate] | does not affect the development of splenomegaly | 63 | 86 | 43 ± 40 | 32** % | 16 ± 18 | 19* % | 10 ± 29 | dramatically reduces the formation of metastases | 256 | 42** % | 74 | five | low toxic to the cancer cell lines |  |
| O=C(O)c1cc2ccc3c(Br)c(C4(O)CCCCC4)[se]c3c2oc1=O [Compound I-11, 7-Bromo-8-(1-hydroxycyclohexyl)-2-oxo-2H-selenopheno[3,2-h]chromene-3-carboxylic acid] |  |  | 62 | 31 ± 41 | 28** % | 14 ± 31 | 39** % | 20 ± 30 | dramatically reduces the formation of metastases | 198 | 58* % | 96 | four | complete loss of cytotoxicity | 98 |
